Results reported in PubChem BioAssay (NCI).
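Method: 48-hour compound exposure of cells in 96-well plates, five concentrations, linear interpolation of endpoints. GI50 is the concentration that inhibits growth by half. TGI: concentration producing complete growth inhibition.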 Where a SMILES comes first, the peptide text is derived from it.

What was measured:
Experiment in all cases: NCI-60 cell line screen, 48 h
COLO 205 colon = system: COLO 205 colon
HCC-2998 colon = system: HCC-2998 colon
HOP-62 NSCLC = system: HOP-62 NSCLC
M14 melanoma = system: M14 melanoma
SR leukemia = system: SR leukemia
TK-10 renal = system: TK-10 renal
U251 CNS = system: U251 CNS
HCT-15 colon = system: HCT-15 colon
MDA-MB-435 = system: MDA-MB-435
NCI/ADR-RES ovarian = system: NCI/ADR-RES ovarian

CCOC(=N)CC(=O)Nc1cccc(Cl)c1
TGI (COLO 205 colon): > 100 µM
TGI (HCC-2998 colon): > 100 µM
TGI (HOP-62 NSCLC): > 100 µM
TGI (M14 melanoma): > 100 µM
TGI (SR leukemia): > 100 µM
TGI (TK-10 renal): > 100 µM
TGI (U251 CNS): > 100 µM

CNS(=O)(=O)NN(C)S(=O)(=O)c1ccc2ccccc2c1
TGI (COLO 205 colon): > 100 µM
TGI (HCC-2998 colon): > 100 µM
TGI (HCT-15 colon): > 100 µM
TGI (HOP-62 NSCLC): > 100 µM
TGI (M14 melanoma): > 100 µM
TGI (SR leukemia): > 100 µM
TGI (TK-10 renal): > 100 µM
TGI (U251 CNS): > 100 µM

COc1cccc2c1C(=O)c1c(O)c3c(c(O)c1C2=O)C[C@@](O)(C(=O)CO)CC3OC1CC(O)C(O)C(C)O1 (stereo partly specified)
TGI (HCC-2998 colon): 2.08 µM
TGI (HCT-15 colon): 5.89 µM
TGI (HOP-62 NSCLC): 0.217 µM
TGI (M14 melanoma): 1.88 µM
TGI (MDA-MB-435): 2.05 µM
TGI (NCI/ADR-RES ovarian): 12.5 µM
TGI (TK-10 renal): 11.6 µM
TGI (U251 CNS): 13.9 µM

Cc1cccc(N2C(=O)C(=O)C(c3nc4ccccc4s3)/C(=N/NC(=S)NN)C2=O)c1C (stereo unspecified)
TGI (COLO 205 colon): > 100 µM
TGI (HCC-2998 colon): > 100 µM
TGI (HCT-15 colon): > 100 µM
TGI (HOP-62 NSCLC): > 100 µM
TGI (M14 melanoma): > 100 µM
TGI (TK-10 renal): > 100 µM
TGI (U251 CNS): > 100 µM

NCCOc1ccccc1/C=C1\c2ccccc2-c2ccc([N+](=O)[O-])cc21
GI50 (COLO 205 colon): 1.75 µM
TGI (COLO 205 colon): 3.44 µM
GI50 (HCC-2998 colon): 1.51 µM
TGI (HCC-2998 colon): 3.09 µM
GI50 (HCT-15 colon): 1.2 µM
TGI (HCT-15 colon): 2.53 µM
GI50 (HOP-62 NSCLC): 1.53 µM
TGI (HOP-62 NSCLC): 3.18 µM
GI50 (M14 melanoma): 1.65 µM
TGI (M14 melanoma): 3.02 µM
GI50 (MDA-MB-435): 1.68 µM
TGI (MDA-MB-435): 3.09 µM
GI50 (NCI/ADR-RES ovarian): 1.77 µM
TGI (NCI/ADR-RES ovarian): 3.54 µM
GI50 (U251 CNS): 1.38 µM
TGI (U251 CNS): 2.74 µM

COc1ccc2c(c1)CC1c3c(ccc(OC)c3O)CC2N1C (stereo unspecified)
TGI (COLO 205 colon): 34.8 µM
TGI (HCC-2998 colon): 30.8 µM
TGI (HCT-15 colon): > 100 µM
TGI (HOP-62 NSCLC): > 100 µM
TGI (M14 melanoma): 32 µM
TGI (SR leukemia): 45.4 µM
TGI (TK-10 renal): > 100 µM
TGI (U251 CNS): > 59.3 µM

O=c1c(NO)c([N+](=O)[O-])cnn1-c1ccccc1
TGI (COLO 205 colon): 9.85 µM
TGI (HCC-2998 colon): 9.86 µM
TGI (HCT-15 colon): 11.6 µM
TGI (HOP-62 NSCLC): 23.1 µM
TGI (M14 melanoma): 4.09 µM
TGI (MDA-MB-435): 3.34 µM
TGI (TK-10 renal): 33.2 µM
TGI (U251 CNS): 8.07 µM

COc1ccc2c(c1)[n+]([O-])c(-c1ccc(C)cc1)c(N)[n+]2[O-]
TGI (COLO 205 colon): 36.4 µM
TGI (HCT-15 colon): > 100 µM
TGI (HOP-62 NSCLC): > 100 µM
TGI (M14 melanoma): > 100 µM
TGI (SR leukemia): > 100 µM
TGI (U251 CNS): > 100 µM

CC1(C)C(=O)/C=C\C(=O)C(C)(C)C(=O)/C=C\C(=O)C(C)(C)C(=O)/C=C\C(=O)C(C)(C)C(=O)/C=C\C1=O
TGI (COLO 205 colon): 33.2 µM
TGI (HCT-15 colon): 61.5 µM
TGI (HOP-62 NSCLC): > 100 µM
TGI (M14 melanoma): 48.8 µM
TGI (MDA-MB-435): > 100 µM
TGI (SR leukemia): 27.8 µM
TGI (TK-10 renal): > 68.6 µM
TGI (U251 CNS): 64.3 µM

Oc1ccc(CCNCc2cc3c(cc2Br)OCO3)cc1
TGI (COLO 205 colon): 40.8 µM
TGI (HCT-15 colon): > 100 µM
TGI (HOP-62 NSCLC): > 100 µM
TGI (M14 melanoma): > 100 µM
TGI (NCI/ADR-RES ovarian): > 100 µM
TGI (SR leukemia): > 100 µM
TGI (TK-10 renal): > 100 µM
TGI (U251 CNS): > 100 µM

CCCCCCCCCCCCCCCC(=O)OCC1OC(OC)C2NP(=O)(N(CCCl)CCCl)OC1C2O (stereo unspecified)
TGI (COLO 205 colon): 13.5 µM
TGI (HCC-2998 colon): 9.46 µM
TGI (HCT-15 colon): 14.2 µM
TGI (HOP-62 NSCLC): 10.8 µM
TGI (M14 melanoma): 18.1 µM
TGI (MDA-MB-435): 21.7 µM
TGI (SR leukemia): 1.78 µM
TGI (TK-10 renal): 31.7 µM
TGI (U251 CNS): > 19.5 µM

COc1ccc(-c2cc(-c3cc(Cl)cc(Br)c3O)[nH]c(=O)n2)cc1
TGI (COLO 205 colon): 29 µM
TGI (HCC-2998 colon): 45.5 µM
TGI (HOP-62 NSCLC): 28.1 µM
TGI (M14 melanoma): 43.3 µM
TGI (SR leukemia): 51.8 µM
TGI (TK-10 renal): 47.3 µM
TGI (U251 CNS): 31.3 µM

CCOC(=O)C1=C(C)N(NC(N)=O)C(C)(O)C12CCOC2=O (stereo unspecified)
TGI (HCC-2998 colon): > 100 µM
TGI (HCT-15 colon): > 100 µM
TGI (HOP-62 NSCLC): > 100 µM
TGI (M14 melanoma): > 100 µM
TGI (SR leukemia): > 100 µM
TGI (U251 CNS): > 100 µM

O=[N+]([O-])c1ccc(/C=C/c2csnn2)cc1
TGI (HCC-2998 colon): > 100 µM
TGI (HCT-15 colon): > 100 µM
TGI (HOP-62 NSCLC): > 100 µM
TGI (M14 melanoma): > 100 µM
TGI (TK-10 renal): > 100 µM
TGI (U251 CNS): > 100 µM

Cc1ccc(NC(=S)SCCC(=O)O)cc1
TGI (COLO 205 colon): > 100 µM
TGI (HCC-2998 colon): > 100 µM
TGI (HCT-15 colon): > 100 µM
TGI (HOP-62 NSCLC): > 100 µM
TGI (M14 melanoma): > 100 µM
TGI (SR leukemia): > 100 µM
TGI (TK-10 renal): > 100 µM
TGI (U251 CNS): > 100 µM

CCC(C)C1NC(=O)C2CCCN2C(=O)CNC(=O)C(C)NC(=O)C(Cc2ccccc2)NC(=O)C(C(C)C)NC1=O (stereo unspecified) (cyclo(GPIVFA); configuration not given here)
TGI (COLO 205 colon): > 100 µM
TGI (HCC-2998 colon): > 100 µM
TGI (HCT-15 colon): > 100 µM
TGI (HOP-62 NSCLC): > 100 µM
TGI (M14 melanoma): > 100 µM
TGI (SR leukemia): > 100 µM
TGI (TK-10 renal): > 100 µM
TGI (U251 CNS): > 100 µM

Clc1ccc2nc(-c3ccccc3)nc(Cl)c2c1
TGI (COLO 205 colon): > 100 µM
TGI (HCC-2998 colon): > 100 µM
TGI (HCT-15 colon): > 100 µM
TGI (HOP-62 NSCLC): 79.9 µM
TGI (SR leukemia): > 100 µM
TGI (TK-10 renal): 63.9 µM
TGI (U251 CNS): > 100 µM

CC1=C(Cl)C=CP(=O)(OC(C)C)C1 (stereo unspecified)
TGI (COLO 205 colon): > 100 µM
TGI (HCC-2998 colon): > 100 µM
TGI (HCT-15 colon): > 100 µM
TGI (HOP-62 NSCLC): > 100 µM
TGI (M14 melanoma): > 100 µM
TGI (SR leukemia): > 100 µM
TGI (TK-10 renal): > 100 µM
TGI (U251 CNS): > 100 µM

O=[N+]([O-])c1cc(Cl)ccc1OCc1ccccc1
TGI (COLO 205 colon): > 100 µM
TGI (HCC-2998 colon): > 100 µM
TGI (HCT-15 colon): > 100 µM
TGI (HOP-62 NSCLC): > 100 µM
TGI (M14 melanoma): > 100 µM
TGI (SR leukemia): > 100 µM
TGI (TK-10 renal): > 100 µM
TGI (U251 CNS): > 100 µM
